Experimental data taken from patent US20120053185A1, “METHOD TO TREAT MELANOMA IN BRAF INHIBITOR-RESISTANT SUBJECTS” (CollabRx Inc., priority 2010, published 2012).

What was measured:
[1] = test system: patient's tumor; test: Case report: patient who became resistant to successive therapies (Example 1); type: in vivo, human; details: single patient
Protocol: A person had been on multiple lines of therapy, with a response to each, but then becoming resistant. The treatments were as follows:
In July, ipilimumab (a therapy directed at CTLA-4, an inhibitor of the immune system) was started. Sutent® was then administered in addition to the ipilimumab. […] As the patient, however, could not eat, they discontinued the Sutent® and died a few days after this discontinuation.

[2] = test system: metastatic melanoma; details: patients with the mutation, cited from earlier work
[3] = Sutent given in addition to ipilimumab, within a few days

| Compound | patient's tumor shrank ([1]; first scan after treatment started January 2010) [%] | result of second scan ([1]; second scan April 2010) | response rate ([2]; one study) [%] | durability of responses [2] | abdomen size [1, 3] | bowel movements [1, 3] |
| --- | --- | --- | --- | --- | --- | --- |
| CCCS(=O)(=O)Nc1ccc(F)c(C(=O)c2c[nH]c3ncc(-c4ccc(Cl)cc4)cc23)c1F [Plexxikon 4032] | 75 | recurrence | 70 | generally does not produce durable responses | – | – |
| CCN(CC)CCNC(=O)c1c(C)[nH]c(/C=C2\C(=O)Nc3ccc(F)cc32)c1C [Sutent®, 5-(5-fluoro-2-oxo-1,2-dihydroindo1-3-ylidenemethyl)-2,4-dimethyl-1H-pyrrole-3-carboxylic acid (2-diethylaminoethyl)amide] | – | – | – | – | abdomen shrank to normal size | normal bowel movements resumed |
